Experimental data as given in patent US20180051284A1, “INHIBITORS OF MIR-17-92 CLUSTER FOR ANTI-TUMOR ACTIVITY IN MULTIPLE MYELOMA AND OTHER MALIGNANCIES” (priority 2014, published 2018).
l = locked nucleic acid (LNA); d = 2'-deoxy (DNA)

Tests used:
MM cell lines = test: CCK-8 cell growth analysis after gymnotic exposure; format: cell-based, Human; conditions: six days gymnotic exposure, 100 nM to 20 μM; ten MM cell lines; units printed inside the value (nM lower, μM upper); read-out: IC50 values by CCK-8 assay, range over MM cell lines
Method: Cells were seeded at low plating density in order to reach confluence on the final day of the experiments (day 6). Cell number at plating ranged from 0.5 to 2.5×10^3 in 96-well plates, from 2.5 to 10×10^3 in 12-well plates and from 1 to 3×10^4 in 6-well plates.
The LNA/DNA Gapmers were used at concentrations ranging from 0.1 to 20 μM.
Cells were seeded in 100 μL (suspension cell lines) or 50 μL (adherent cell lines) of culture medium at a density ranging from 0,5 to 2,5×10^3 cells per well. Survival was evaluated by both Cell Counting Kit-8 colorimetric assay (CCK-8, Dojindo Molecular Technologies, Japan) and CellTiter-Glo Luminescent Cell Viability Assay (Promega Madison, Wis., USA). Assays were performed according to the manufacturer's instructions. The optical density (OD) was evaluated at wave length of 450 nm. Both OD and luminescence were recorded with the GloMax-multi detection system (Promega, Madison, Wis., USA).

[1] = system: CD138+ plasma cells derived from MGUS patients; test: Cell viability (7-AAD) of MGUS plasma cells after gymnotic exposure; format: cell-based, Human; conditions: 6 days gymnotic exposure, 5 μM
Method: Following informed consent approved by our University Hospital Ethical Commitee, CD138+cells were isolated from the BM aspirates of both Monoclonal gammopathy of undetermined significance (MGUS) and myeloma patients by Ficoll-Hypaque density gradient sedimentation followed by antibody-mediated positive selection using anti-CD138 magnetic activated cell separation microbeads (Miltenyi Biotech, Gladbach, Germany). Purity of immunoselected cells were assessed by flow-cytometric analysis using a phycoerythrin-conjugated CD138 monoclonal antibody by standard procedures.
(§1) 7-aminoactinomycin was used to evaluate cell viability. The staining was performed according to manufacturer's instructions.

AMO1 cells = test: Combination with proteasome inhibitors or melphalan, 7-AAD cell viability, combination index; format: cell-based, Human; conditions: for CI value of combination with Bortezomib / CI value of combination with Carfilzomib / CI value of combination with Melphalan: AMO1, 6 days
Method: Bortezomib (PS-341, catalog n° S1013) and Carfilzomib (PR-171, catalog n°S2853) were purchased from Selleck. Combination between miR-17-92 LNA gapmer_06 and proteasome inhibitors was tested in AMO1 cells. 1×10^3 cells were plating in 96-well plates. Bortezomib was used at concentrations ranging from 2 nM to 3.5 nM. Carfilzomib was used at concentrations ranging from 0.4 to 0.7 nM. Measurement of synergistic index (SI) was determined with the following formula: SI=(effect induced by miR-17-92 LNA gapmers and proteasome inhibitors in combination)/effect of miR-17-92 LNA gapmers) +(effect of proteasome inhibitors). Interactions were considered synergistic when the SI was >1.
Melphalan was purchased from Sigma Aldrich (catalog n°M2011). Combination between miR-17-92 LNA gapmer_06 and melphalan was tested in AMO1 cells. Cell number at plating was 1×10^3 in 96-well plates. Melphalan was used at concentrations ranging from 0.5 μM to 2 μM. Measurement of synergistic index (SI) was determined with the following formula: SI=(effect induced by miR-17-92 LNA gapmers and melphalan in combination)/(effect of miR-17-92 LNA gapmers)+(effect of melphalan). Interactions were considered synergistic when the SI was >1.
as §1
AMO1 cells were exposed for 6 days to LNA gapmers_06 or each of Bortezomib, Carfilzomib, Melphalan or to combinations of LNA gapmer_06 and each of these drugs.
Cells viability was calculated by flow cytometric analysis of 7-AAD staining and the percentage of living cell was compared to the untreated cells.
In Tables 3-5 tests with the respective combinations performed simultaneously are reported. The effect of LNA gapmer_06 was determined separately for Bortezomib, Carfilzomib, and Melphalan explaining the slightly different values. CI (combination index) values are shown (CI<1 synergism, CI=1 additive, […]). For each monotherapy different doses and combinations were tested. Combination index were calculated using the CalcuSyn software.

AMO1/abzb xenografts = test: In vivo tumor growth of Bortezomib-refractory AMO1/abzb xenografts (IVIS); set-up: species or system mice; conditions: I.P. 2 mg/kg at day 1-4-8-15-22; Bortezomib-refractory model
Excerpt: Male CB-17 severe combined immunodeficient (SCID) mice (6- to 8-weeks old; Harlan Laboratories, Inc., Indianapolis) were housed and monitored in our Animal Research Facility. All experimental procedures and protocols had been approved by the Institutional Ethical Committee (Magna Graecia University) and conducted according to protocols approved by the National Directorate of Veterinary Services (Italy). In accordance with institutional guidelines, mice were sacrificed when tumors reached 2 cm in diameter or in the event of paralysis or major compromise, to prevent unnecessary suffering. Animal experimental procedures have been performed as in previous reports (Di Martino et al, CCR 2012; Di Martino el al. Oncotarget 2013, Di Martino et al PlosOne 2014). […] Mice were also inoculated with 5×10^6 luciferase gene-marked U266, AMO-1, AMO-1/abzb, treatments were performed intraperitoneally (i.p.), and tumor volume were measured by IVIS Lumina II.
In vivo anti-MM activity of LNA gapmer_06 was next evaluated in NOD/SCID mice bearing subcutaneous AMO1 xenografts. […] Tumors volume were measured using IVIS LUMINA II Imaging We next evaluate the in vivo activity in Bortezomib-refractory model of human MM. […] Tumors volume were measured using IVIS LUMINA II Imaging System.

gapmer_06: LNA/DNA gapmer, SEQ ID 4 (14 mer): +T*+A*+C*T*T*G*C*T*T*G*G*+C*+T*+T; + LNA, * phosphorothioate (antisense TACTTGCTTGGCTT; sugars from the 5' end l3 d8 l3, all phosphorothioate, methylation of C not given here)
IC50 (MM cell lines): 500 to 8000 nM
cell viability (7-AAD) [1]: unaffected
interaction with Bortezomib to induce cell death (AMO1 cells; AMO1 cells, 6 days, combination with Bortezomib): synergizes
interaction with Carfilzomib to induce cell death (AMO1 cells; AMO1 cells, 6 days, combination with Carfilzomib): synergizes
interaction with Melphalan to induce cell death (AMO1 cells; AMO1 cells, 6 days, combination with Melphalan): synergizes
CI value of combination with Bortezomib (AMO1 cells; Bortezomib 0.0035 μm + miR-17-92 LNA gapmer 0.5 μl): 0.759
CI value of combination with Bortezomib (AMO1 cells; Bortezomib 0.0035 μm + miR-17-92 LNA gapmer 0.75 μl): 0.418
CI value of combination with Bortezomib (AMO1 cells; Bortezomib 0.0035 μm + miR-17-92 LNA gapmer 1 μl): 0.342
CI value of combination with Bortezomib (AMO1 cells; Bortezomib 0.0035 μm + miR-17-92 LNA gapmer 1.25 μl): 0.036
CI value of combination with Carfilzomib (AMO1 cells; Carfilzomib 0.0004 μm + miR-17-92 LNA gapmer 1.25 μl): 0.89
CI value of combination with Carfilzomib (AMO1 cells; Carfilzomib 0.0005 μm + miR-17-92 LNA gapmer 1.25 μl): 0.55
CI value of combination with Carfilzomib (AMO1 cells; Carfilzomib 0.0006 μm + miR-17-92 LNA gapmer 1.25 μl): 0.50
CI value of combination with Carfilzomib (AMO1 cells; Carfilzomib 0.0007 μm + miR-17-92 LNA gapmer 1.25 μl): 0.39
CI value of combination with Melphalan (AMO1 cells; Melphala 1.5 μm + miR-17-92 LNA gapmer 0.5 μl): 0.78
CI value of combination with Melphalan (AMO1 cells; Melphala 1.5 μm + miR-17-92 LNA gapmer 0.75 μl): 0.99
CI value of combination with Melphalan (AMO1 cells; Melphala 1.5 μm + miR-17-92 LNA gapmer 1 μl): 0.65
CI value of combination with Melphalan (AMO1 cells; Melphala 1.5 μm + miR-17-92 LNA gapmer 1.25 μl): 0.56
CI value of combination with Melphalan (AMO1 cells; Melphala 1.75 μm + miR-17-92 LNA gapmer 0.5 μl): 0.66
CI value of combination with Melphalan (AMO1 cells; Melphala 1.75 μm + miR-17-92 LNA gapmer 0.75 μl): 0.89
CI value of combination with Melphalan (AMO1 cells; Melphala 1.75 μm + miR-17-92 LNA gapmer 1 μl): 0.56
CI value of combination with Melphalan (AMO1 cells; Melphala 1.75 μm + miR-17-92 LNA gapmer 1.25 μl): 0.47
CI value of combination with Melphalan (AMO1 cells; Melphala 2 μm + miR-17-92 LNA gapmer 0.5 μl): 0.51
CI value of combination with Melphalan (AMO1 cells; Melphala 2 μm + miR-17-92 LNA gapmer 0.75 μl): 0.59
CI value of combination with Melphalan (AMO1 cells; Melphala 2 μm + miR-17-92 LNA gapmer 1 μl): 0.46
CI value of combination with Melphalan (AMO1 cells; Melphala 2 μm + miR-17-92 LNA gapmer 1.25 μl): 0.26
tumor growth (IVIS tumor volume) (AMO1/abzb xenografts): significant tumor-growth inhibition
